Reference: the RepoRT retention time repository

Experiment: Waters ACQUITY UPLC BEH C18, 50 × 2.1 mm, 1.7 µm, 30 °C, 0.3 mL/min, estimated dead time 0.37 min; A: water + 0.3% formic acid; B: acetonitrile; gradient (min/%B) 0.5/5 3.5/20 5.5/25 7/57 8/90
Conditions: stereoisomer not certain

Row | SMILES | LC retention time [min]
1 | O=C1NC(=NC2CC2)OC1c1ccccc1 (stereo not drawn) | 4.84
2 | O=C(c1ccc(OCCN2CCCCC2)cc1)c1c(-c2ccc(O)cc2)sc2cc(O)ccc12 | 6.58
3 | CCN(CC)C(=O)c1ccc(O)c(OC)c1 | 4.77
4 | CC12CCC(=O)C=C1CCC1C2C(=O)CC2(C)C1CCC2(O)C(=O)CO (stereo not drawn) | 6.31
5 | CC(C)(N)Cc1ccccc1 | 2.91
6 | CC12Cc3c([nH][nH]c3=O)CC1CCC1C2CCC2(C)C1CCC2(C)O (stereo not drawn) | 6.7
7 | CC(C)c1c(CN(C)C(C)Cc2ccccc2)n(C)n(-c2ccccc2)c1=O (stereo not drawn) | 6.48
8 | CNC(C)Cc1ccc(O)cc1 (stereo not drawn) | 1.24
9 | CC(C)NCC(O)COc1ccc(CC(N)=O)cc1 (stereo not drawn) | 1.62
10 | C=CCOc1ccccc1OCC(O)CNC(C)C (stereo not drawn) | 4.66
11 | CC12Cc3cn[nH]c3C(O)C1CCC1C2CCC2(C)C1CCC2(C)O (stereo not drawn) | 6.7
12 | CC12CCC(=O)C=C1CCC1C2C(O)CC2(C)C1CCC2(O)C(=O)CO (stereo not drawn) | 6.23
13 | CC(N)Cc1ccc2c(c1)OCO2 (stereo not drawn) | 2.5
14 | CCC(C)CC(C)N (stereo not drawn) | 2.87
15 | O=C(O)CS(=O)C(c1ccccc1)c1ccccc1 (stereo not drawn) | 6.69
16 | N=C1NC(=O)C(c2ccccc2)O1 (stereo not drawn) | 2.7
17 | CC(C)NCC(O)COc1cccc2ccccc12 (stereo not drawn) | 5.78

Row | SMILES | LC retention time [min]
18 | NC(=O)CS(=O)C(c1ccccc1)c1ccccc1 (stereo not drawn) | 6.01
19 | CC(C)(C)NCC(O)c1ccc(O)c(CO)c1 (stereo not drawn) | 1.45
20 | CNC(C)C(O)c1ccc(O)cc1 (stereo not drawn) | 0.65
21 | CN1C2CCC1C(C(=O)O)C(OC(=O)c1ccccc1)C2 (stereo not drawn) | 3.31
22 | CCOC(=O)C1(c2ccccc2)CCN(C)CC1 | 4.43
23 | C#CC1(O)CCC2C3C(C)CC4=C(CCC(=O)C4)C3CCC21C (stereo not drawn) | 7.51
24 | CC12C=CC(=O)C=C1CCC1C2C(O)CC2(C)C1CCC2(O)C(=O)CO (stereo not drawn) | 6.15
25 | CCC(=C(c1ccccc1)c1ccc(OCCN(C)C)cc1)c1ccccc1 | 7.76
26 | CCCCNc1cc(C(=O)O)cc(S(N)(=O)=O)c1Oc1ccccc1 | 7.49
27 | CCC(C(=O)OCCN1CCOC(c2ccccc2)C1C)c1ccccc1 (stereo not drawn) | 7.17
28 | CCC(=O)C(CC(C)N(C)C)(c1ccccc1)c1ccccc1 (stereo not drawn) | 7.03
29 | NC(=O)CN1CC(c2ccccc2)CC1=O (stereo not drawn) | 3.86
30 | Nc1nc(N)c(-c2ccccc2)s1 | 1.84
31 | CC(C(O)c1ccccc1)N(C)C (stereo not drawn) | 2.2
32 | NC(CC(O)COc1cccc2ccccc12)=NO (stereo not drawn) | 4.76
33 | CNC(C)(C)Cc1ccccc1 | 3.14
